From the supplement of paper PMC13207355

Tests used:
Details in all cases: exposure time: 72 h
[1] = test system: E13 (patient-derived glioblastoma stem cells of classical subtype); assay: surviving fraction (nuclei count normalised to DMSO); higher = more cells surviving (less toxic)
[2] = test system: E21 (patient-derived glioblastoma stem cells of mesenchymal subtype); assay: as above
[3] = test system: E28 (patient-derived glioblastoma stem cells of classical subtype); assay: as above
[4] = test system: E31 (patient-derived glioblastoma stem cells of proneural subtype); assay: as above
[5] = test system: E34 (patient-derived glioblastoma stem cells of proneural subtype); assay: as above
[6] = test system: E57 (patient-derived glioblastoma stem cells of mesenchymal subtype); assay: as above
[7] = test system: FT3469 (normal neural stem cell line); assay: as above
[8] = test system: E13; assay: phenotypic distance (Euclidean, principal components) from DMSO controls (arbitrary units); higher = stronger morphological change
[9] = test system: E21; assay: as above
[10] = test system: E28; assay: as above
[11] = test system: E31; assay: as above
[12] = test system: E34; assay: as above
[13] = test system: E57; assay: as above
[14] = test system: FT3469; assay: as above
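Throughout, for phenotypic distance (Euclidean, principal components) from DMSO controls: cell Painting imaging in 384-well plates, CellProfiler features reduced to at least 20 principal components, Euclidean distance versus same-plate DMSO vehicle wells (0.1% v/v), median over six images per well.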
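Throughout, for surviving fraction (nuclei count normalised to DMSO): nuclei counted by high-content imaging of Hoechst-stained cells in laminin-coated 384-well plates, relative to 0.1% DMSO vehicle wells, with staurosporine as cell-death control.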

CO[C@H]1C(=O)[C@]2(C)[C@@H](OC)C[C@H]3OC[C@@]3(OC(C)=O)[C@H]2[C@H](OC(=O)c2ccccc2)[C@]2(O)C[C@H](OC(=O)[C@H](O)[C@@H](NC(=O)OC(C)(C)C)c3ccccc3)C(C)=C1C2(C)C [Cabazitaxel]
Details | phenotypic distance | surviving fraction
[1], 4.1 nM | – | 0.197
[1], 12.3 nM | – | 0.226
[1], 37 nM | – | 0.203
[1], 111.1 nM | – | 0.265
[1], 333.3 nM | – | 0.25
[1], 1000 nM | – | 0.245
[1], 3000 nM | – | 0.32
[2], 4.1 nM | – | 0.323
[2], 12.3 nM | – | 0.353
[2], 37 nM | – | 0.326
[2], 111.1 nM | – | 0.325
[2], 333.3 nM | – | 0.365
[2], 1000 nM | – | 0.413
[2], 3000 nM | – | 0.423
[3], 4.1 nM | – | 0.367
[3], 12.3 nM | – | 0.401
[3], 37 nM | – | 0.344
[3], 111.1 nM | – | 0.301
[3], 333.3 nM | – | 0.412
[3], 1000 nM | – | 0.412
[3], 3000 nM | – | 0.534
[4], 4.1 nM | – | 0.252
[4], 12.3 nM | – | 0.164
[4], 37 nM | – | 0.195
[4], 111.1 nM | – | 0.192
[4], 333.3 nM | – | 0.262
[4], 1000 nM | – | 0.218
[4], 3000 nM | – | 0.288
[5], 4.1 nM | – | 0.399
[5], 12.3 nM | – | 0.365
[5], 37 nM | – | 0.434
[5], 111.1 nM | – | 0.49
[5], 333.3 nM | – | 0.476
[5], 1000 nM | – | 0.608
[5], 3000 nM | – | 0.531
[6], 4.1 nM | – | 0.0988
[6], 12.3 nM | – | 0.102
[6], 37 nM | – | 0.0906
[6], 111.1 nM | – | 0.117
[6], 333.3 nM | – | 0.125
[6], 1000 nM | – | 0.133
[6], 3000 nM | – | 0.141
[7], 4.1 nM | – | 0.374
[7], 12.3 nM | – | 0.573
[7], 37 nM | – | 0.435
[7], 111.1 nM | – | 0.553
[7], 333.3 nM | – | 0.535
[7], 1000 nM | – | 0.406
[7], 3000 nM | – | 0.63
[8], 4.1 nM | 7.08 | –
[8], 12.3 nM | 7.55 | –
[8], 37 nM | 7.44 | –
[8], 111.1 nM | 6.21 | –
[8], 333.3 nM | 6.97 | –
[8], 1000 nM | 7.09 | –
[8], 3000 nM | 6.39 | –
[9], 4.1 nM | 7.35 | –
[9], 12.3 nM | 7.15 | –
[9], 37 nM | 6.53 | –
[9], 111.1 nM | 7.01 | –
[9], 333.3 nM | 7.6 | –
[9], 1000 nM | 8.51 | –
[9], 3000 nM | 7.5 | –
[10], 4.1 nM | 4.55 | –
[10], 12.3 nM | 4.4 | –
[10], 37 nM | 3.8 | –
[10], 111.1 nM | 4.96 | –
[10], 333.3 nM | 3.6 | –
[10], 1000 nM | 4.06 | –
[10], 3000 nM | 3.99 | –
[11], 4.1 nM | 4.63 | –
[11], 12.3 nM | 5.67 | –
[11], 37 nM | 4.24 | –
[11], 111.1 nM | 4.7 | –
[11], 333.3 nM | 4.56 | –
[11], 1000 nM | 4.89 | –
[11], 3000 nM | 3.99 | –
[12], 4.1 nM | 4.76 | –
[12], 12.3 nM | 5.24 | –
[12], 37 nM | 5.3 | –
[12], 111.1 nM | 4.8 | –
[12], 333.3 nM | 5.59 | –
[12], 1000 nM | 4.91 | –
[12], 3000 nM | 4.55 | –
[13], 4.1 nM | 6.8 | –
[13], 12.3 nM | 7.09 | –
[13], 37 nM | 5.83 | –
[13], 111.1 nM | 6.72 | –
[13], 333.3 nM | 6.55 | –
[13], 1000 nM | 6.56 | –
[13], 3000 nM | 6.86 | –
[14], 4.1 nM | 4.34 | –
[14], 12.3 nM | 4.07 | –
[14], 37 nM | 3.92 | –
[14], 111.1 nM | 4.49 | –
[14], 333.3 nM | 4.39 | –
[14], 1000 nM | 5.31 | –
[14], 3000 nM | 3.95 | –
